pIC50, pKi: −log10 of the molar value.
Experiments:
Prothrombin = Prothrombin (Homo sapiens, UniProt P00734); test: Inhibitory activity towards Thrombin
Serine protease 1 = Serine protease 1 (Homo sapiens, UniProt P07477); test: Inhibitory activity towards Trypsin
Sequence of Serine protease 1 (P07477 whole entry): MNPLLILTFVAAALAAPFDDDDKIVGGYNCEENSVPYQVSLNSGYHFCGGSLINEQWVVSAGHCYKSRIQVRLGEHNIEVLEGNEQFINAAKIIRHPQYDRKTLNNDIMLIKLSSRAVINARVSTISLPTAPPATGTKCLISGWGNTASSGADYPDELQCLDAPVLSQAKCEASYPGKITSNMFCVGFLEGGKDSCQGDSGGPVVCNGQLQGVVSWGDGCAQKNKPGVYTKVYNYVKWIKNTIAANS

Row | pKi (Prothrombin) | pIC50 (Serine protease 1) | pKi (Serine protease 1) | Compound
1 | 9.22 | 9.00 | – | N=C(N)NCCC[C@H](NC(=O)[C@@H]1CC[C@H]2CN(C(=O)CCc3ccccc3)CC(=O)N21)C(=O)c1nccs1
2 | 8.46 | – | 5.40 | N=C(N)N1CCCC(C[C@H](NC(=O)[C@@H]2CC[C@H]3CN(C(=O)CCc4ccccc4)CC(=O)N32)C(=O)c2nccs2)C1 (some centres undefined)

Reference: ChEMBL document CHEMBL1133576, “Structural basis of the thrombin selectivity of a ligand that contains the constrained arginine mimic (2S)-2-amino-(3S)-3-(1-carbamimidoyl- piperidin-3-yl)-propanoic acid at P1” (J Med Chem, 2000)
